# From ChEMBL document CHEMBL5029164, “JNJ-67569762, A 2-Aminotetrahydropyridine-Based Selective BACE1 Inhibitor Targeting the S3 Pocket: From Discovery to Clinical Candidate” (J Med Chem, 2021)
# Calls of active or inactive are those of the source. No cut-off for these calls is given here.
# Legend:
# [1] = Ratio of unbound drug concentration in CSF to plasma in Beagle dog at 0.16 to 3.75 mg/kg, po; assay type: ADME, organism-based, Canis lupus familiaris; details: CSF and plasma, dose 0.16-3.75 mg/kg
# Beta-secretase 2 [2] = molecular target: T1, Beta-secretase 2 (Homo sapiens, UniProt Q9Y5Z0); experiment: Inhibition of BACE2 (unknown origin) using APP harboring Swedish Lys-Met/Asn-Leu mutant-derived peptide as substrate incubated for 2 hrs by FRET assay
# T1 sequence (Q9Y5Z0 whole entry): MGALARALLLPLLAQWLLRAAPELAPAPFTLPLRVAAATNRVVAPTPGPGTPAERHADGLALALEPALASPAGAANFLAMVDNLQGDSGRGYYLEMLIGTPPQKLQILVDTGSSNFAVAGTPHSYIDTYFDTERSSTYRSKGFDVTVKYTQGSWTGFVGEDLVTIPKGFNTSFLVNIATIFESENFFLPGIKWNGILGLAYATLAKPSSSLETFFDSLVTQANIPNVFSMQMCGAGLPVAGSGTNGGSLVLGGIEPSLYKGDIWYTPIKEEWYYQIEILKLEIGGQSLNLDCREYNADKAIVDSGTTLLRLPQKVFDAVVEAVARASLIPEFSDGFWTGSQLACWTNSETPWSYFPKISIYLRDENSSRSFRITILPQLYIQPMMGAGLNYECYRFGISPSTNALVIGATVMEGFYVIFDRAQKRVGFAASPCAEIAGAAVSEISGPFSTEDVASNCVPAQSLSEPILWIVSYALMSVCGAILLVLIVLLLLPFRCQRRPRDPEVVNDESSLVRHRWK
# Beta-secretase 2 [3] = molecular target: T1, Beta-secretase 2; experiment: Displacement of [3H]-JNJ962 from BACE2 (unknown origin) expressed in HEK293 cell membrane assessed as inhibition constant by scintillation counting analysis; assay type: cell membranes
# Cathepsin D = Cathepsin D (Homo sapiens, UniProt P07339); experiment: Inhibition of human cathepsin D incubated for 3.5 hrs by fluorescence assay
# Chain of Cathepsin D (P07339 65-162 limits assumed): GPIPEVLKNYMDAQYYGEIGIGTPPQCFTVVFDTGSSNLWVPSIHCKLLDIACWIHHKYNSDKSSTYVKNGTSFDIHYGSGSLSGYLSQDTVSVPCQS
# Chain of Cathepsin D (P07339 169-412 limits assumed): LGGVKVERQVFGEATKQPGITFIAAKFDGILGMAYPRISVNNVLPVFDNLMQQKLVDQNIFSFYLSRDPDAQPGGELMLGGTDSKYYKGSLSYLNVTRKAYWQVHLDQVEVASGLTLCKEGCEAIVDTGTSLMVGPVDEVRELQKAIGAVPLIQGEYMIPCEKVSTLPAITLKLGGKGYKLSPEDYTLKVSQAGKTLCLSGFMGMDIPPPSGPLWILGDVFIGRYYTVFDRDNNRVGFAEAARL
# [4] = Metabolic stability in human liver microsomes assessed as intrinsic clearance; assay type: ADME, Microsome; details: read-out: CLH
# [5] = Metabolic stability in dog liver microsomes assessed as intrinsic clearance; assay type: ADME, Canis lupus familiaris, Microsome; details: read-out: CLH
# Cytochrome P450 2C19 = Cytochrome P450 2C19 (Homo sapiens, UniProt P33261); experiment: Reversible inhibition of human CYP2C19; assay type: ADME
# Chain of Cytochrome P450 2C19 (P33261 whole entry): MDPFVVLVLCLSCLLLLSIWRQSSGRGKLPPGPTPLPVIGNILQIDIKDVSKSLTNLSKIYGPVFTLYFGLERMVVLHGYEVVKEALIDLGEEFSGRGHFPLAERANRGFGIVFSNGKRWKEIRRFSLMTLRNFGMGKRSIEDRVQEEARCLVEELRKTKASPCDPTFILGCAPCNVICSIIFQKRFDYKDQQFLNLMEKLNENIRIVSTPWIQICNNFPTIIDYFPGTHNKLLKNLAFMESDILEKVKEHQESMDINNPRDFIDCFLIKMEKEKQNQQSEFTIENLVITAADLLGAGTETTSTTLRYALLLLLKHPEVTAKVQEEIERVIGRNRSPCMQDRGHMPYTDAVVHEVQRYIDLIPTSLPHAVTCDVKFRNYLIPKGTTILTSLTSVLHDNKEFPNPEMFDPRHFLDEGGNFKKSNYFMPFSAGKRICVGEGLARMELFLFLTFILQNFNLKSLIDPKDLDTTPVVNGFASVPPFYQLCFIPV
# [6] = Intrinsic clearance in human hepatocytes assessed per 10^6 cells incubated for 3 hrs; assay type: ADME, cell-based, Hepatocyte; details: read-out: CLH
# [7] = Apparent permeability in MDCK-MDR1 cells; assay type: ADME, cell-based, Canis lupus familiaris; details: dog
# [8] = Efflux ratio of apparent permeability across basolateral to apical over apical to basolateral side in MDCK-MDR1 cells; assay type: ADME, cell-based, Canis lupus familiaris; details: dog
# [9] = Plasma protein binding in human assessed as unbound fraction at 5 uM after 4.5 hrs by HPLC-MS/MS analysis; assay type: ADME, cell-free
# [10] = Plasma protein binding in dog assessed as unbound fraction at 5 uM after 4.5 hrs by HPLC-MS/MS analysis; assay type: ADME, cell-free, Canis lupus familiaris
# [11] = Plasma protein binding in mouse assessed as unbound fraction at 5 uM after 4.5 hrs by HPLC-MS/MS analysis; assay type: ADME, cell-free
# [12] = Glutathione reactivity in human liver microsomes; assay type: ADME
# [13] = Cyanide reactivity in human liver microsomes; assay type: ADME
# Salmonella typhimurium = experiment: Genotoxicity in Salmonella typhimurium measured upto 500 ug/ml in presence and absence of S9 mix fraction by Ames test; assay type: toxicity, organism-based; details: salmonella enterica subsp. enterica serovar typhimurium; dose <=500 µg/ml
# [14] = Inhibition of calcium channel (unknown origin); parameters: species or system Homo sapiens
# [15] = molecular target: T2, Voltage-gated inwardly rectifying potassium channel KCNH2 (Homo sapiens, UniProt Q12809); experiment: Inhibition of human ERG
# T2 sequence (Q12809 whole entry): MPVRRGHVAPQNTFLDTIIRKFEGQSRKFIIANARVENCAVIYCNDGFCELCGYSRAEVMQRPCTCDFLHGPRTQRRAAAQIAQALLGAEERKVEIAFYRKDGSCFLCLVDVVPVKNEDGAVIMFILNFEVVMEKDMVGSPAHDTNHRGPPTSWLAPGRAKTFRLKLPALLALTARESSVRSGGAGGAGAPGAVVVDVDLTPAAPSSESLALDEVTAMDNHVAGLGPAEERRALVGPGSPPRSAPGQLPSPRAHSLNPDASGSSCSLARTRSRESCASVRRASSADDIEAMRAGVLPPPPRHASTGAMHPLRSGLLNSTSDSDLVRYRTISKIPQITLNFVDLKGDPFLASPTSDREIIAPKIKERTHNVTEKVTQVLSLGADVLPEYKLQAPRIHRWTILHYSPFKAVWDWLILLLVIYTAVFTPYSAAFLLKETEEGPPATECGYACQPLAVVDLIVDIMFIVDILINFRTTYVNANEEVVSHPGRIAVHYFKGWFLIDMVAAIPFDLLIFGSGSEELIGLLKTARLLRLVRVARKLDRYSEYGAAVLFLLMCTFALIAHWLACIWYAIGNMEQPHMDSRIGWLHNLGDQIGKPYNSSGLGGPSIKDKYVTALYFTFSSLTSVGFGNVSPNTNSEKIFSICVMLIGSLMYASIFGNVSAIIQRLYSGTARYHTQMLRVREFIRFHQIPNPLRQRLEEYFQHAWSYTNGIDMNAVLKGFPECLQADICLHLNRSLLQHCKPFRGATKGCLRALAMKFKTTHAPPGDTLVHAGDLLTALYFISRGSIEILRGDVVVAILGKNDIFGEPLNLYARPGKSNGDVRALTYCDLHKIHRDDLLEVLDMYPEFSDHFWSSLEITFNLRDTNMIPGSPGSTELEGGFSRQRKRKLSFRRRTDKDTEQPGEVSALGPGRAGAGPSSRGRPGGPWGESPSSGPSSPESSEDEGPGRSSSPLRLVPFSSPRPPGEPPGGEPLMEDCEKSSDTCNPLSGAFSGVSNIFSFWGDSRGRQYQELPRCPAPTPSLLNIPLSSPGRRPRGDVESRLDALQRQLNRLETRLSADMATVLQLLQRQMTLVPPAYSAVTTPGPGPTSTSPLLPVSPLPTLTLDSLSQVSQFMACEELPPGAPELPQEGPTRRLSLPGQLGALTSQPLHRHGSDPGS
# [16] = molecular target: T2, Voltage-gated inwardly rectifying potassium channel KCNH2; experiment: Inhibition of human ERG expressed in CHO cells by patch-clamp assay; assay type: cell-based
# [17] = Cardiotoxicity in human iPSC-derived cardiomyocytes assessed as calcium transport at 0.1 uM measured after 15 to 30 mins by fluorescence assay; assay type: ADME, cell-based; details: stem cell-derived cardiomyocyte, time 15-30 min
# [18] = Cardiotoxicity in human iPSC-derived cardiomyocytes assessed as calcium transport at 0.2 uM measured after 15 to 30 mins; assay type: ADME, cell-based; details: stem cell-derived cardiomyocyte, time 15-30 min
# [19] = Cardiotoxicity in human iPSC-derived cardiomyocytes assessed as calcium transport at 0.5 uM measured after 15 to 30 mins by fluorescence assay; assay type: ADME, cell-based; details: stem cell-derived cardiomyocyte, time 15-30 min
# [20] = Cardiotoxicity in human iPSC-derived cardiomyocytes assessed as calcium transport at 1 uM measured after 15 to 30 mins by fluorescence assay; assay type: cell-based; details: stem cell-derived cardiomyocyte, time 15-30 min
# [21] = Cardiotoxicity in human iPSC-derived cardiomyocytes assessed as calcium transport at 2.5 uM measured after 15 to 30 mins by fluorescence assay; assay type: ADME, cell-based; details: stem cell-derived cardiomyocyte, time 15-30 min
# [22] = Chromatographic hydrophobicity index, log D of the compound at pH 7.4; assay type: physicochemical; details: buffer
# [23] = Dissociation constant, pKa of compound by potentiometric method; assay type: physicochemical
# [24] = Reduction in amyloid beta38 levels in Beagle dog CSF; assay type: functional, Canis lupus familiaris
# Mus musculus [25] = experiment: In vivo inhibition of BACE1 in C57BL/6J mouse assessed as reduction in plasma SEZ6L level at 21 to 69 mg/kg,/day administered via diet for 21 days; assay type: functional, organism-based; details: dose lower […], dose upper 69.0 mg/kg, time 21.0 day
# [26] = Toxicity in rat measured up to 30 mg/kg, po qd for 14 days; assay type: organism-based; details: in vivo, 336 h, time 14 day
# [27] = Toxicity in rat assessed as prolonged QT at 15 mg/kg, po for 14 days; assay type: organism-based; details: in vivo, 336 h, time 14 day
# Substance-K receptor = molecular target: T3, Substance-K receptor (Homo sapiens, UniProt P21452); experiment: Displacement of [125I]NKA from human recombinant NK2 receptor after 60 mins by scintillation counting analysis
# T3 sequence (P21452 whole entry): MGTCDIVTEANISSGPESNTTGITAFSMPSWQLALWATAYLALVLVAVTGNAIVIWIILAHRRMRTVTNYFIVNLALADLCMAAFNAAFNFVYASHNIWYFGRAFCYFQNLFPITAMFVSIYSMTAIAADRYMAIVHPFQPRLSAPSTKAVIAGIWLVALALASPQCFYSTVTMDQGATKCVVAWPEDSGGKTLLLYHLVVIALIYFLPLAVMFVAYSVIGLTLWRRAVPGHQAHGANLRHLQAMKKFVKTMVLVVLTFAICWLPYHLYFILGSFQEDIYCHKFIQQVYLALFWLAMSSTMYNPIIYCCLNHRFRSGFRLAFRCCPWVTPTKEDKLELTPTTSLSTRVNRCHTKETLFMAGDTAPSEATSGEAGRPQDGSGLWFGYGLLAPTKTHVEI
# [28] = Unbound fraction in human hepatocytes incubated for 3 hrs; assay type: ADME, cell-based, Hepatocyte
# Mus musculus [29] = experiment: In vivo inhibition of BACE2 in C57BL/6J mouse assessed as reduction in hair melanin production at 61 mg/kg/day administered via diet for 21 days; assay type: functional, organism-based; details: time 21.0 day
# [30] = Reduction in amyloid beta42 levels in Beagle dog CSF; assay type: functional, Canis lupus familiaris
# Homo sapiens = species: Homo sapiens; experiment: Selectivity index, ratio of IC50 for inhibition of BACE2 (unknown origin) to IC50 for inhibition of BACE1 (1 to 454 residues) (unknown origin)
smiles,measurement,setting,value
CCS(=O)(=O)[C@]1(C)CC[C@@](CF)(c2cc(NC(=O)c3cc4c(cn3)OC(F)(F)O4)ccc2F)N=C1N,Kp uu,[1],0.4
same,IC50,Beta-secretase 2 [2],195 nM
same,Ki,Beta-secretase 2 [3],50 nM
same,IC50,Cathepsin D,> 100000 nM
same,microsomal CLint,[4],< 7.7 µL/min/mg
same,microsomal CLint,[5],< 7.7 µL/min/mg
same,IC50,Cytochrome P450 2C19,19500 nM
same,hepatocyte CLint,[6],2.6 µL/min/1e6 cells
same,Papp,[7],32.4 ×10⁻⁶ cm/s
same,efflux ratio,[8],35
same,"fraction unbound at 4.5 h, 5 µM",[9],0.063
same,"fraction unbound at 4.5 h, 5 µM",[10],0.122
same,"fraction unbound at 4.5 h, 5 µM",[11],0.035
same,Activity,[12],Not Active
same,Activity,[13],Not Active
same,Activity,Salmonella typhimurium,Non-Toxic
same,IC50,[14],1200 nM
same,IC50,[15],> 10000 nM
same,IC50,[16],8300 nM
same,Activity,[17],Non-Toxic
same,Activity,[18],Non-Toxic
same,Activity,[19],Non-Toxic
same,Activity,[20],Non-Toxic
same,Activity,[21],Toxic
same,chromatographic logD,[22],3.08
same,pKa,[23],7.08
same,EC80,[24],0.0425 µg/mL
same,inhibition,Mus musculus [25],Active
same,Activity,[26],Non-Toxic
same,Activity,[27],Toxic
same,Ki,Substance-K receptor,1200 nM
same,fraction unbound at 3 h,[28],0.679
same,inhibition,Mus musculus [29],inactive
same,EC80,[30],0.0425 µg/mL
same,Ratio IC50,Homo sapiens,71
